Reference: patent publication US10662194B2, “Substituted 6-anilino-9-heterocyclylpurine derivatives for inhibition of plant stress” (UNIVERZITA PALACKEHO V OLOMOUCI, priority 2014, dated 2020)

Experiments:
AHK3 = target: T1, AHK3 (Arabidopsis thaliana, UniProt Q9C5U1); assay: Escherichia coli cytokinin receptor activation assay (AHK3); format: cell-based; details: 10^−7 M-5×10^−5 M, compared to trans-zeatin, FIG. 1
T1 construct: expressed in transfected cells; host or cells: Escherichia coli strain KMI001
T1 sequence (Q9C5U1 1-1036): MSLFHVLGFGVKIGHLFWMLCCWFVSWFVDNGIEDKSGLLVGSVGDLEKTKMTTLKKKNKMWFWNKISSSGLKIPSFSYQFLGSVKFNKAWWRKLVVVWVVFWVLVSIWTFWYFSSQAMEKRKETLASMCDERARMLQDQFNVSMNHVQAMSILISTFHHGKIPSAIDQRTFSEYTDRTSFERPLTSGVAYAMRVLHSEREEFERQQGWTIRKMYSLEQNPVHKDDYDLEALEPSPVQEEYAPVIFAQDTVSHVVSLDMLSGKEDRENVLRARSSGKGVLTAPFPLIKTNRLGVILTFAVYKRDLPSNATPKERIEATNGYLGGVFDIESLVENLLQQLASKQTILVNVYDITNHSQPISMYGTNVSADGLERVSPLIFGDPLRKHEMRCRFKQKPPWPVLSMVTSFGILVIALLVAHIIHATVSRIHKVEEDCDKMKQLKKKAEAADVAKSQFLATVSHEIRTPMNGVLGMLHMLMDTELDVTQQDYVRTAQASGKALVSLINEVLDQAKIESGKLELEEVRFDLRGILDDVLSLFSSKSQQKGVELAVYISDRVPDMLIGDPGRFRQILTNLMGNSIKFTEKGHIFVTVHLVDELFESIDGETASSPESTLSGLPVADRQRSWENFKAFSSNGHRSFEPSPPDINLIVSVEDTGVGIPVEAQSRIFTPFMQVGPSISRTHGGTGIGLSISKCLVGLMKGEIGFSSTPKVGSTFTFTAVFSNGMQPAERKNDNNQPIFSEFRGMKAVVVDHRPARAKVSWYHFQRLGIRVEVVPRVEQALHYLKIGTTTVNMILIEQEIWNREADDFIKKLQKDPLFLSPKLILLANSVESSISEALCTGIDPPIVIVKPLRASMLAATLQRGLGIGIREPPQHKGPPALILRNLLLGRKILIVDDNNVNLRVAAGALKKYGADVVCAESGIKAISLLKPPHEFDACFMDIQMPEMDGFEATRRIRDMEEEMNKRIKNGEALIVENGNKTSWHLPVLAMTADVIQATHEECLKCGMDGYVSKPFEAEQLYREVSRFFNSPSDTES
Protocol: (§1) Escherichia coli strains KMI001 harbouring the plasmid pIN-III-AHK4 or pSTV28-AHK3 were grown overnight at 25° C. in M9 media enriched with 0.1% casamino acids to OD600˜1. The preculture was diluted 1:600 in 1 ml M9 medium containing 0.1% casamino acids and 1 μL stock solution of either the tested compound (10^−7 M-5×10^−5 M) or solvent control (DMSO, ethanol, methanol) were added. The cultures were further grown at 25° C. in microtiter plate, 200 μL per well. […] The cultures were centrifuged and 50 μL aliquots of the supernatant were transferred to microtiter plate containing 2 μL 50 mM 4-methyl umbelliferyl galactoside which was subsequently incubated for 1 h at 37° C. The reaction was stopped by adding 100 μL 0.2 M Na2CO3. Fluorescence was measured using a Fluoroscan Ascent (Labsystems, Finland) at the excitation and emission wavelengths of 365 and 460 nm, respectively. The OD600 of remaining culture was determined and β-galactosidase activity was calculated as nmol 4-methylumbelliferone×OD600^−1×h^−1.

[1] = test system: shoot rosettes of Arabidopsis; assay: Leaf chlorophyll degradation in dark-incubated shoot rosettes; format: in vivo; details: 6 days in the dark
Protocol: The effect of the compound 12 on retention of chlorophyll in the dark treated plants was tested using app. 18 DAG (days after germination) old Arabidopsis plants grown in vitro on standard MS medium (16 h/8 h light/dark regime, light intensity 120 μmol·m^−l·s^−1). Shoots of the plants were excised from the roots and the whole rossetes were placed into 6-well plate (one rosete per well) into water (3 mL per well) containing 0.01% DMSO (solvent control), or compound 12, cytokinin BAP and CKX inhibitor INCYDE (2-chloro-6-(3-methoxyanilino)purine), in concentrations of 0.01, 0.1, 1 and 10 μM. The plates were then incubated in the dark for 6 days at 25° C. After incubation chlorophyll from each rosette was extracted into 1.8 mL of 80% ethanol, during 30 min of heating to 80° C. The chlorophyll content in extracts was measured spectrofotometricaly at 665 nm. […] In this concentration the rosettes kept around 95% of chlorophyll.

CRE1/AHK4 = target: T2, CRE1/AHK4 (Arabidopsis thaliana, UniProt Q9C5U0); assay: Escherichia coli cytokinin receptor activation assay (CRE1/AHK4); format: cell-based; details: 10^−7 M-5×10^−5 M, compared to trans-zeatin, FIG. 1
T2 construct: expressed in transfected cells; host or cells: Escherichia coli strain KMI001
T2 sequence (Q9C5U0 whole entry): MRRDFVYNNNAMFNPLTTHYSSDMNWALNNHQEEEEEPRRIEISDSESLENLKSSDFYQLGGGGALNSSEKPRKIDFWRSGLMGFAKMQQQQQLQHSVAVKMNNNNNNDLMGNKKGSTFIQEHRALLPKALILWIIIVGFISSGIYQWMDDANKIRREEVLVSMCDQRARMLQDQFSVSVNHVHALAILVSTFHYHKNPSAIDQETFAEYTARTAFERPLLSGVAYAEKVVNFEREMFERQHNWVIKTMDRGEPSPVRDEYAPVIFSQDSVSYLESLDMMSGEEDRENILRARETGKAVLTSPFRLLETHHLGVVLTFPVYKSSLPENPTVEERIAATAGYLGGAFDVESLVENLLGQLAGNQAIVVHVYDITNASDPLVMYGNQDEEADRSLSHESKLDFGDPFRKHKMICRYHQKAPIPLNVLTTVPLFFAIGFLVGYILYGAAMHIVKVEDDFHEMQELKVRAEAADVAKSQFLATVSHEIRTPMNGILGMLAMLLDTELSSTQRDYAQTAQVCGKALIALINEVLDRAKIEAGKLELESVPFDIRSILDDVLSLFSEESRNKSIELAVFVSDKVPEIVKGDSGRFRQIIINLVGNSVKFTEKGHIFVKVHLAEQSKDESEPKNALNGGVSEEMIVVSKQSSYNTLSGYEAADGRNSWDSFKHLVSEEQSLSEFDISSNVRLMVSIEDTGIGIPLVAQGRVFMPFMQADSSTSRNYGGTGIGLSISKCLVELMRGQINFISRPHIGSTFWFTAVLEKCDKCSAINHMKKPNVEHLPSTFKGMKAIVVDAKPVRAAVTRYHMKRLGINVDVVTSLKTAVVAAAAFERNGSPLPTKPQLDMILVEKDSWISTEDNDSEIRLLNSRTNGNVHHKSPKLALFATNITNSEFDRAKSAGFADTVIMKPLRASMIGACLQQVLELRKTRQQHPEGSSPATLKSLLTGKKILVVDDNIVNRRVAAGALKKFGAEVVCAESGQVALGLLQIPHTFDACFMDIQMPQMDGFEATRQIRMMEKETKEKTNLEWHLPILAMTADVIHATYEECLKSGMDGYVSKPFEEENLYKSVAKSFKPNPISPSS
Protocol: as §1

maize (hybrid Amadeo) = assay: Seed coating, shoot and root growth of maize (pot experiment); format: in vivo
Protocol: The drenching experiments with model plant Arabidopsis pointed to potential application of compound 12 in stimulation of plant growth and development when the roots of the plants are exposed to the chemical. […] In the year 2011 pot experiment was performed with maize (hybrid Amadeo; KWS, FAO 230). The seeds were coated with 10 and 50 μM concentration of compound 12 mixed into seed treatment agent Cruiser OSR (Syngenta; 8 L of solution per 1000 kg of seeds). Seeds coated with only Cruiser OSR were used for control variant. The seeds were dried and then sown into the soil, one plant per 15 L pot (30 plants were used per variant). The plants were harvested after app. one month in stage DC 18 (eight leafs per plant). The shoots and the roots of each plant were separated and dried. The weight of dry shoot and root biomass was recorded. […] The plants, which seeds were coated with the lower concentration of compound 12, formed 2-times higher root dry biomass and 2.75-times higher shoot dry biomass. In total this was reflected by 2.3-times increase of the total plant dry weight.

[2] = seed coating, lower concentration (10 μM), stage DC 18

COc1cccc(Nc2nc(Cl)nc3c2ncn3C2CCCCO2)c1 (centres unmarked) [compound 12, 2-chloro-6-(3-methoxyanilino)-9-(tetrahydropyran-2-yl)purine]
ability to activate cytokinin receptor AHK3 (AHK3): very low ability to activate
chlorophyll kept in rosettes ([1]; 1 μM): around 95%
retention of chlorophyll, activity versus BAP and INCYDE ([1]; 0.01-10 μM, FIG. 7): highest activity in 1 μM concentration
ability to activate cytokinin receptor CRE1/AHK4 (CRE1/AHK4): very low ability to activate
effect on shoot and root dry biomass (maize (hybrid Amadeo); seed coating 10 and 50 μM, FIG. 10): dose-dependent stimulatory effect
increase of the total plant dry weight (maize (hybrid Amadeo); [2]): 2.3 times
root dry biomass, times higher than control (maize (hybrid Amadeo); [2]): 2 times
shoot dry biomass, times higher than control (maize (hybrid Amadeo); [2]): 2.75 times
